Laboratory results taken from patent US20190364896A1, “SYNERGISTIC WEED CONTROL FROM APPLICATIONS OF PYRIDINE CARBOXYLIC ACID HERBICIDES AND ALS INHIBITORS” (Dow AgroSciences LLC, priority 2014, published 2019).
Where “and” joins values, the source holds several entries; their conditions need not be identical. Identical values can stand only once. Like-named read-outs stand apart in the source and are kept apart here.

What was measured:
Assay in all cases: Postemergence herbicidal activity, greenhouse trial (visual injury 0-100%)
Type in all cases: in vivo
[1] = system: kochia (Kochia scoparia, KCHSC); conditions: Bassia scoparia, post-emergence, read-out: % visual injury Obs
Summary of the method: (§1)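 Seedlings were raised 7-36 d in a greenhouse, then treated postemergence at the second or third true leaf stage. Mixtures were applied overhead at 187 L/ha, and plants were sub-irrigated to avoid wash-off. Injury was rated visually 20-22 d later.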

[2] = system: wild buckwheat (Polygonum convolvulus, POLCO); conditions: Fallopia convolvulus, post-emergence, read-out: % visual injury Obs
Summary of the method: as §1

[3] = system: thistle (Cirsium arvense, CIRAR)
Summary of the method: as §1

[4] = system: velvetleaf (Abutilon theophrasti, ABUTH)
[5] = system: sunflower (Helianthus annuus, HELAN)
[6] = system: nutsedge (Cyperus esculentus, CYPES)
Summary of the method: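 Greenhouse-grown plants at the second to third true leaf stage were sprayed with two-way mixtures in 1.5% v/v Agri-dex crop oil concentrate at 187 L/ha; rates in g ae/ha for component (a) and g ai/ha for component (b). Injury scored visually 0–100% versus solvent-blank controls after 20–22 d, with expected mixture effects from Colby's equation.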

[7] = system: wild pansy (Viola tricolor, VIOTR); conditions: Viola tricolor, post-emergence, read-out: % visual injury Obs
Summary of the method: as §1

With `Nc1c(F)c(-c2ccc3cc[nH]c3c2F)nc(C(=O)O)c1Cl` [Compound 1] the pest or weed control at 5 g/ha ([1]; 5 g ae/ha) was 65%, the pest or weed control at 10 g/ha ([1]; 10 g ae/ha) was 60% and the pest or weed control at 5 g/ha ([1]; KCHSC, Compound 1 5 g ae/ha) was 60%. For the same compound, the pest or weed control at 10 g/ha ([1]; KCHSC, Compound 1 10 g ae/ha) was 60%, the pest or weed control at 5 g/ha ([2]; 5 g ae/ha) was 70% and the pest or weed control at 5 g/ha ([2]; POLCO, Compound 1 5 g ae/ha) was 65%. For the same compound, the “% visual injury Obs” value ([3]; CIRAR, Compound 1 5 g ae/ha) was 10%, the pest or weed control at 5 g/ha ([3]; Cirsium arvense, post-emergence, 5 g ae/ha, read-out: % visual injury Obs) was 10% and the “% visual injury Obs” value ([4]; 5 g ae/ha) was 50% and 70%. The “% visual injury Obs” value ([4]; 10 g ae/ha) was 60%, the “% visual injury Obs” value ([4]; ABUTH, Compound 1 5 g ae/ha) was 70% and the “% visual injury Obs” value ([5]; 5 g ae/ha) was 90%. For the same compound, the “% visual injury Obs” value ([5]; 10 g ae/ha) was 90%, the “% visual injury Obs” value ([5]; HELAN, Compound 1 5 g ae/ha) was 70% and the “% visual injury Obs” value ([6]; CYPES, Compound 1 5 g ae/ha) was 10%. For the same compound, the pest or weed control at 5 g/ha ([6]; Cyperus, post-emergence, 5 g ae/ha, read-out: % visual injury Obs) was 10%, the pest or weed control at 10 g/ha ([7]; 10 g ae/ha) was 10% and the pest or weed control at 10 g/ha ([7]; VIOTR, Compound 1 10 g ae/ha) was 10%.
`CCCOc1nn(C(=O)NS(=O)(=O)c2ccccc2C(=O)OC)c(=O)n1C` [Propoxycarbazone, propoxycarbazone] gave a pest or weed control at […] ([1]; 7.5 g ai/ha) of 30%, a pest or weed control at […] ([2]; 7.5 g ai/ha) of 10% and a pest or weed control at […] ([3]; Cirsium arvense, post-emergence, 7.5 g ai/ha, read-out: % visual injury Obs) of 75%. For the same compound, the “% visual injury Obs” value ([4]; 7.5 g ai/ha) was 50%, the “% visual injury Obs” value ([5]; 7.5 g ai/ha) was 85% and the pest or weed control at […] ([6]; Cyperus, post-emergence, 7.5 g ai/ha, read-out: % visual injury Obs) was 75%. The pest or weed control at […] ([7]; 7.5 g ai/ha) was 20%.
